Results: patent US20080279907A1, “Antimicrobial medical devices and methods for making and using same” (Ash Access Technology, Inc., priority 2007, published 2008)

Assays:
[1] = Desorption of parabens from paraben impregnated polycarbonate catheter pieces in 0.24 M sodium citrate pH 6.2 (HPLC); format: physicochemical
Description: One inch polycarbonate catheter pieces including a surface area of about 4.64 cm^2 were impregnated with methyl paraben and propyl paraben. A solution of 100% 1,2-propanediol was prepared with 9% methyl paraben and 2% propyl paraben. Pairs of the one inch catheter pieces were placed into three 25 ml flasks including 10 ml of the 1,2-propanediol and paraben solution. The flasks including the catheter pieces were placed on a shaker at 220 rpm and 27° C. for two, four, or nine hour time periods. At the end of each time period, the catheter pieces were removed, rinsed with distilled water, and dried.
Desorption analysis of the paraben impregnated catheter pieces was performed in 0.24 M sodium citrate with a pH of 6.2. The total amount of either methyl paraben or propyl paraben released from the catheter pieces was calculated using HPLC analysis performed with a Waters Alliance 2690 including a 996 Photodiode Array Detector. Each calculation used a solution of HPLC grade H2O, methanol (MeOH), and acetonitrile (CAN) which were pre-filtered through a Millipore 0.45 μm nylon filter before use. Trifluoracetic acid (TFA) was added to H2O and acetonitrile (ACN) to 0.1%. A Waters Symmetry column (C8 3.9×150 mm, 5 μm) was applied with a Waters guard column (Waters, Sentry Guard column, Nova-Pak C18, 60A, 4 μm 3.9×20 mm).
A gradient of 67% H2O/33% ACN was used for 6.5 min, ramped to 45 %/55% from 6.5 to 7.0 min, and kept at 45%/55% until 15.0 min, at 15.0 min the concentration reverted to 67%/33%, and the system was run until 18 min. Injection volume for each sample was 10 μl and samples and column were run at ambient temperature.
Table 2 includes the graphical data represented in FIG. 8 and associated with the desorption of propyl paraben from the paraben impregnated catheter pieces prepared as discussed above. Again, the samples were impregnated only with parabens and desorbed in 10 ml 0.24 M Na-citrate, pH 6.2 over time.

[2] = Perfusion of parabens and methylene blue through polycarbonate membrane in perfusion chamber (HPLC of lower chamber); format: physicochemical
Description: An experiment was performed to determine a method for perfusing methylene blue, methyl paraben, and propyl paraben through a polycarbonate membrane with causing only minimal changes to the strength and elasticity of the membrane. In FIG. 12, there is illustrated a perfusion chamber system 50 used during the experiment. System 50 includes an upper chamber 51 and a lower chamber 52 separated by a polycarbonate membrane 53 having a thickness of 0.60 mm. The upper and lower chambers 51, 52 are generally structured to hold 10.5 cm^3 or 10.5 ml of fluid. The upper chamber 51 was connected to a peristaltic pump (not shown) and the lower chamber 52 was filled with distilled water. First and second solutions, respectively including the parabens and the methylene blue, were prepared in accordance with the method set forth in EXAMPLE 6 above. As best seen in Tables 6 and 7 below, the solutions were connected to the pump and passed through the first chamber 51 at a constant rate at 37° C. over various lengths of time.
Table 6 includes data obtained from HPLC analysis comparing the methyl paraben, propyl paraben, and methylene blue concentrations in the lower chamber 52. The parameters for the methyl and propyl paraben and methylene blue treatments are indicated in the left hand columns.

[3] = lower chamber, 20% PG/80% DI H2O (0.9% MP, 0.2% PP) ~9 hrs at 37 C., then MB ~10 days

## COC(=O)c1ccc(O)cc1 [MP, methyl paraben]
[1]; nearly 3 months, FIGS. 8 and 9
  desorption by the end of the study: negligible desorption
[1]; paraben impregnated catheter pieces, 0.24 M Na-citrate pH 6.2
  period of significant release: 10 days
[1]; treatment 2 hrs (100% PG, 9% MP, 2% PP), time 1 hour
  Total MP released (mg)/1″ catheter: 0.361 mg/1″ catheter
[1]; treatment 2 hrs (100% PG, 9% MP, 2% PP), time 3 hours
  Total MP released (mg)/1″ catheter: 0.577 mg/1″ catheter
[1]; treatment 2 hrs (100% PG, 9% MP, 2% PP), time 7 hours
  Total MP released (mg)/1″ catheter: 0.84 mg/1″ catheter
[1]; treatment 2 hrs (100% PG, 9% MP, 2% PP), time 24 hours
  Total MP released (mg)/1″ catheter: 1.17 mg/1″ catheter
[1]; treatment 2 hrs (100% PG, 9% MP, 2% PP), time 4 days
  Total MP released (mg)/1″ catheter: 1.519 mg/1″ catheter
[1]; treatment 2 hrs (100% PG, 9% MP, 2% PP), time 5 days
  Total MP released (mg)/1″ catheter: 1.685 mg/1″ catheter
[1]; treatment 2 hrs (100% PG, 9% MP, 2% PP), time 6 days
  Total MP released (mg)/1″ catheter: 1.826 mg/1″ catheter
[1]; treatment 2 hrs (100% PG, 9% MP, 2% PP), time 8 days
  Total MP released (mg)/1″ catheter: 2.002 mg/1″ catheter
[1]; treatment 2 hrs (100% PG, 9% MP, 2% PP), time 11 days
  Total MP released (mg)/1″ catheter: 2.129 mg/1″ catheter
[1]; treatment 2 hrs (100% PG, 9% MP, 2% PP), time 13 days
  Total MP released (mg)/1″ catheter: 2.208 mg/1″ catheter
[1]; treatment 2 hrs (100% PG, 9% MP, 2% PP), time 15 days
  Total MP released (mg)/1″ catheter: 2.281 mg/1″ catheter
[1]; treatment 2 hrs (100% PG, 9% MP, 2% PP), time 18 days
  Total MP released (mg)/1″ catheter: 2.325 mg/1″ catheter
[1]; treatment 2 hrs (100% PG, 9% MP, 2% PP), time 22 days
  Total MP released (mg)/1″ catheter: 2.356 mg/1″ catheter
[1]; treatment 2 hrs (100% PG, 9% MP, 2% PP), time 29 days
  Total MP released (mg)/1″ catheter: 2.377 mg/1″ catheter
[1]; treatment 2 hrs (100% PG, 9% MP, 2% PP), time 36 days
  Total MP released (mg)/1″ catheter: 2.392 mg/1″ catheter
[1]; treatment 2 hrs (100% PG, 9% MP, 2% PP), time 50 days
  Total MP released (mg)/1″ catheter: 2.402 mg/1″ catheter
[1]; treatment 2 hrs (100% PG, 9% MP, 2% PP), time 67 days
  Total MP released (mg)/1″ catheter: 2.409 mg/1″ catheter
[1]; treatment 2 hrs (100% PG, 9% MP, 2% PP), time 81 days
  Total MP released (mg)/1″ catheter: 2.413 mg/1″ catheter
[1]; treatment 4 hrs (100% PG, 9% MP, 2% PP), time 1 hour
  Total MP released (mg)/1″ catheter: 0.603 mg/1″ catheter
[1]; treatment 4 hrs (100% PG, 9% MP, 2% PP), time 3 hours
  Total MP released (mg)/1″ catheter: 1.04 mg/1″ catheter
[1]; treatment 4 hrs (100% PG, 9% MP, 2% PP), time 7 hours
  Total MP released (mg)/1″ catheter: 1.472 mg/1″ catheter
[1]; treatment 4 hrs (100% PG, 9% MP, 2% PP), time 24 hours
  Total MP released (mg)/1″ catheter: 2.223 mg/1″ catheter
[1]; treatment 4 hrs (100% PG, 9% MP, 2% PP), time 4 days
  Total MP released (mg)/1″ catheter: 2.774 mg/1″ catheter
[1]; treatment 4 hrs (100% PG, 9% MP, 2% PP), time 5 days
  Total MP released (mg)/1″ catheter: 3.01 mg/1″ catheter
[1]; treatment 4 hrs (100% PG, 9% MP, 2% PP), time 6 days
  Total MP released (mg)/1″ catheter: 3.146 mg/1″ catheter
[1]; treatment 4 hrs (100% PG, 9% MP, 2% PP), time 8 days
  Total MP released (mg)/1″ catheter: 3.324 mg/1″ catheter
[1]; treatment 4 hrs (100% PG, 9% MP, 2% PP), time 11 days
  Total MP released (mg)/1″ catheter: 3.449 mg/1″ catheter
[1]; treatment 4 hrs (100% PG, 9% MP, 2% PP), time 13 days
  Total MP released (mg)/1″ catheter: 3.536 mg/1″ catheter
[1]; treatment 4 hrs (100% PG, 9% MP, 2% PP), time 15 days
  Total MP released (mg)/1″ catheter: 3.597 mg/1″ catheter
[1]; treatment 4 hrs (100% PG, 9% MP, 2% PP), time 18 days
  Total MP released (mg)/1″ catheter: 3.646 mg/1″ catheter
[1]; treatment 4 hrs (100% PG, 9% MP, 2% PP), time 22 days
  Total MP released (mg)/1″ catheter: 3.676 mg/1″ catheter
[1]; treatment 4 hrs (100% PG, 9% MP, 2% PP), time 29 days
  Total MP released (mg)/1″ catheter: 3.701 mg/1″ catheter
[1]; treatment 4 hrs (100% PG, 9% MP, 2% PP), time 36 days
  Total MP released (mg)/1″ catheter: 3.722 mg/1″ catheter
[1]; treatment 4 hrs (100% PG, 9% MP, 2% PP), time 50 days
  Total MP released (mg)/1″ catheter: 3.74 mg/1″ catheter
[1]; treatment 4 hrs (100% PG, 9% MP, 2% PP), time 67 days
  Total MP released (mg)/1″ catheter: 3.749 mg/1″ catheter
[1]; treatment 4 hrs (100% PG, 9% MP, 2% PP), time 81 days
  Total MP released (mg)/1″ catheter: 3.755 mg/1″ catheter
[1]; treatment 9 hrs (100% PG, 9% MP, 2% PP), time 1 hour
  Total MP released (mg)/1″ catheter: 0.67 mg/1″ catheter
[1]; treatment 9 hrs (100% PG, 9% MP, 2% PP), time 3 hours
  Total MP released (mg)/1″ catheter: 1.18 mg/1″ catheter
[1]; treatment 9 hrs (100% PG, 9% MP, 2% PP), time 7 hours
  Total MP released (mg)/1″ catheter: 1.504 mg/1″ catheter
[1]; treatment 9 hrs (100% PG, 9% MP, 2% PP), time 24 hours
  Total MP released (mg)/1″ catheter: 1.993 mg/1″ catheter
[1]; treatment 9 hrs (100% PG, 9% MP, 2% PP), time 4 days
  Total MP released (mg)/1″ catheter: 2.725 mg/1″ catheter
[1]; treatment 9 hrs (100% PG, 9% MP, 2% PP), time 5 days
  Total MP released (mg)/1″ catheter: 3.082 mg/1″ catheter
[1]; treatment 9 hrs (100% PG, 9% MP, 2% PP), time 6 days
  Total MP released (mg)/1″ catheter: 3.27 mg/1″ catheter
[1]; treatment 9 hrs (100% PG, 9% MP, 2% PP), time 8 days
  Total MP released (mg)/1″ catheter: 3.456 mg/1″ catheter
[1]; treatment 9 hrs (100% PG, 9% MP, 2% PP), time 11 days
  Total MP released (mg)/1″ catheter: 3.593 mg/1″ catheter
[1]; treatment 9 hrs (100% PG, 9% MP, 2% PP), time 13 days
  Total MP released (mg)/1″ catheter: 3.676 mg/1″ catheter
[1]; treatment 9 hrs (100% PG, 9% MP, 2% PP), time 15 days
  Total MP released (mg)/1″ catheter: 3.734 mg/1″ catheter
[1]; treatment 9 hrs (100% PG, 9% MP, 2% PP), time 18 days
  Total MP released (mg)/1″ catheter: 3.788 mg/1″ catheter
[1]; treatment 9 hrs (100% PG, 9% MP, 2% PP), time 22 days
  Total MP released (mg)/1″ catheter: 3.832 mg/1″ catheter
[1]; treatment 9 hrs (100% PG, 9% MP, 2% PP), time 29 days
  Total MP released (mg)/1″ catheter: 3.872 mg/1″ catheter
[1]; treatment 9 hrs (100% PG, 9% MP, 2% PP), time 36 days
  Total MP released (mg)/1″ catheter: 3.912 mg/1″ catheter
[1]; treatment 9 hrs (100% PG, 9% MP, 2% PP), time 50 days
  Total MP released (mg)/1″ catheter: 3.944 mg/1″ catheter
[1]; treatment 9 hrs (100% PG, 9% MP, 2% PP), time 67 days
  Total MP released (mg)/1″ catheter: 3.958 mg/1″ catheter
[1]; treatment 9 hrs (100% PG, 9% MP, 2% PP), time 81 days
  Total MP released (mg)/1″ catheter: 3.967 mg/1″ catheter
[2]; 0.60 mm polycarbonate membrane, 37° C.
  time until perfused through the membrane and detected in the lower chamber: within two hours
[2]; lower chamber sample
  ratio MP/PP from this sample: 4.7
[2]; [3]
  MP Conc: 0.047 mg/mL
  Total mg MP in 10.5 mL lower chamber: 0.4935 mg
